Source: patent US9216991B2 (Ares Trading S.A., priority 2012, dated 2015)

Biological target: T1, IRAK4 (Homo sapiens, UniProt Q9NWZ3)
T1 construct: His (N); TEV cleavage site (N)
T1 sequence (Q9NWZ3 1-460): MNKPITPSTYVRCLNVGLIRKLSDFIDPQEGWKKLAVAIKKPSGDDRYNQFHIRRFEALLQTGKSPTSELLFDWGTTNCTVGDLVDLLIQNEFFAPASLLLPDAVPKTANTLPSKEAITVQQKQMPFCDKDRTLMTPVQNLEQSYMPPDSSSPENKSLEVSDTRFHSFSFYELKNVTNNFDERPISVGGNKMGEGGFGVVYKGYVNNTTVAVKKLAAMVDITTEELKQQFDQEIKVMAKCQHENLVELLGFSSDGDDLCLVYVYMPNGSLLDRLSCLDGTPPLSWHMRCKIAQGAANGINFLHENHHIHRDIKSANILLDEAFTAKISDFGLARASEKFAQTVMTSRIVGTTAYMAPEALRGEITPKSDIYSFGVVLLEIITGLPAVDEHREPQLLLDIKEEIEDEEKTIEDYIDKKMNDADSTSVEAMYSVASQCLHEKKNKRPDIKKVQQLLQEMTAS
Experiment: IRAK4 Enzymatic Assay
Assay type: biochemical
Settings: His-TEV-IRAK4 20 ng/well, ATP 2 μM, STK1-biotin peptide 300 nM, 3 hours at 30° C., FlashPlate radioactivity
In short: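 Radiometric FlashPlate readout: biotin-STK1 substrate (300 nM) captured on streptavidin after EDTA stop and washes. Reaction used His-TEV-IRAK4 (20 ng/well), 2 μM [^33P]-spiked ATP and compound (1 nM-20 μM), incubated 3 h at 30 °C in 50 mM HEPES pH 7.0, 10 mM MgCl2, 5 mM MnCl2, 2 mM DTT.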

| SMILES | IC50 |
| --- | --- |
| CN(C(=O)Cn1cc(-c2cnc(-c3cccc(-c4cnn(C)c4)c3)nc2)cn1)C1CCOCC1 [Example 91, N-Methyl-2-(4-{2-[3-(1-methyl-1H-pyrazol-4-yl)-phenyl]-pyrimidin-5-yl}-pyrazol-1-yl)-N-(tetrahydro-pyran-4-yl)-acetamide] | 100 to 1000 nM |
| Cn1cc(-c2cccc(-c3ncc(-c4cnn(CC(=O)N5C[C@@H]6C[C@H]5CO6)c4)cn3)c2)cn1 [Example 92, 2-(4-{2-[3-(1-Methyl-1H-pyrazol-4-yl)-phenyl]-pyrimidin-5-yl}-pyrazol-1-yl)-1-(1S,4S)-2-oxa-5-aza-bicyclo[2.2.1]hept-5-yl-ethanone] | 100 to 1000 nM |
| Cn1cc(-c2cccc(-c3ncc(-c4cnn(CC(=O)N5CCCOCC5)c4)cn3)c2)cn1 [Example 93, 2-(4-{2-[3-(1-Methyl-1H-pyrazol-4-yl)-phenyl]-pyrimidin-5-yl}-pyrazol-1-yl)-1-[1,4]oxazepan-4-yl-ethanone] | 100 to 1000 nM |
| Cn1cc(-c2cccc(-c3ncc(-c4cnn(CC(=O)N5CC6CCC(C5)O6)c4)cn3)c2)cn1 [Example 94, 2-(4-{2-[3-(1-Methyl-1H-pyrazol-4-yl)-phenyl]-pyrimidin-5-yl}-pyrazol-1-yl)-1-(8-oxa-3-aza-bicyclo[3.2.1]oct-3-yl)-ethanone] | 100 to 1000 nM |
| Cn1cc(-c2cccc(-c3ncc(-c4cnn(C5CCN(C6CCOCC6F)CC5)c4)cn3)c2)cn1 (stereo not drawn) [Example 95, Cis-5-{1-[1-(3-Fluoro-tetrahydro-pyran-4-yl)-piperidin-4-yl]-1H-pyrazol-4-yl}-2-[3-(1-methyl-1H-pyrazol-4-yl)-phenyl]-pyrimidine] | 100 to 1000 nM |
| COc1ccc(CCn2cc(-c3cnc(-c4cccc(-c5cnn(C)c5)c4)nc3)cn2)cc1OC [Example 96, 5-{1-[2-(3,4-Dimethoxy-phenyl)-ethyl]-1H-pyrazol-4-yl}-2-[3-(1-methyl-1H-pyrazol-4-yl)-phenyl]-pyrimidine] | 100 to 1000 nM |
| Cn1cc(-c2cccc(-c3ncc(-c4cnn(C5CCOCC5)c4)cn3)c2)cn1 [Example 97, 2-[3-(1-Methyl-1H-pyrazol-4-yl)-phenyl]-5-[1-(tetrahydro-pyran-4-yl)-1H-pyrazol-4-yl]-pyrimidine] | 100 to 1000 nM |
| COCCn1cc(-c2cnc(-c3cccc(-c4cnn(C)c4)c3)nc2)cn1 [Example 98, 5-[1-(2-Methoxy-ethyl)-1H-pyrazol-4-yl]-2-[3-(1-methyl-1H-pyrazol-4-yl)-phenyl]-pyrimidine] | 100 to 1000 nM |
| CC(C(=O)N(C)C)n1cc(-c2cnc(-c3cccc(-c4cnn(C)c4)c3)nc2)cn1 (centres unmarked) [Example 99, N,N-Dimethyl-2-(4-{2-[3-(1-methyl-1H-pyrazol-4-yl)-phenyl]-pyrimidin-5-yl}-pyrazol-1-yl)-propionamide] | 1000 to 5000 nM |
| COC1CN(C(=O)CCn2cc(-c3cnc(-c4cccc(-c5cnn(C)c5)c4)nc3)cn2)C1 [Example 100, 1-(3-Methoxy-azetidin-1-yl)-3-(4-{2-[3-(1-methyl-1H-pyrazol-4-yl)-phenyl]-pyrimidin-5-yl}-pyrazol-1-yl)-propan-1-one] | 1000 to 5000 nM |
| Cn1cc(-c2cccc(-c3ncc(-c4cnn(CCC(=O)N5CC6(COC6)C5)c4)cn3)c2)cn1 [Example 101, 3-(4-{2-[3-(1-Methyl-1H-pyrazol-4-yl)-phenyl]-pyrimidin-5-yl}-pyrazol-1-yl)-1-(2-oxa-6-aza-spiro[3.3]hept-6-yl)-propan-1-one] | 1000 to 5000 nM |
| CN1CCN(C(=O)CCn2cc(-c3cnc(-c4cccc(-c5cnn(C)c5)c4)nc3)cn2)CC1 [Example 102, 1-(4-Methyl-piperazin-1-yl)-3-(4-{2-[3-(1-methyl-1H-pyrazol-4-yl)-phenyl]-pyrimidin-5-yl}-pyrazol-1-yl)-propan-1-one] | 1000 to 5000 nM |
| CC(C(=O)N1CCOCC1)n1cc(-c2cnc(-c3cccc(-c4cnn(C)c4)c3)nc2)cn1 (centres unmarked) [Example 103, 2-(4-{2-[3-(1-Methyl-1H-pyrazol-4-yl)-phenyl]-pyrimidin-5-yl}-pyrazol-1-yl)-1-morpholin-4-yl-propan-1-one] | 1000 to 5000 nM |
| Cn1cc(-c2cccc(-c3ncc(-c4cnn(C5CCN(C(=O)C6CCOC6)CC5)c4)cn3)c2)cn1 (centres unmarked) [Example 104, [4-(4-{2-[3-(1-Methyl-1H-pyrazol-4-yl)-phenyl]-pyrimidin-5-yl}-pyrazol-1-yl)-piperidin-1-yl]-(tetrahydro-furan-3-yl)-methanone] | 100 to 1000 nM |
| COCC(=O)N1CCC(n2cc(-c3cnc(-c4cccc(-c5cnn(C)c5)c4)nc3)cn2)CC1 [Example 105, 2-Methoxy-1-[4-(4-{2-[3-(1-methyl-1H-pyrazol-4-yl)-phenyl]-pyrimidin-5-yl}-pyrazol-1-yl)-piperidin-1-yl]-ethanone] | 100 to 1000 nM |
| Cn1cc(-c2cccc(-c3ncc(-c4cnn(C5CCN(C(=O)CO)CC5)c4)cn3)c2)cn1 [Example 106, 2-Hydroxy-1-[4-(4-{2-[3-(1-methyl-1H-pyrazol-4-yl)-phenyl]-pyrimidin-5-yl}-pyrazol-1-yl)-piperidin-1-yl]-ethanone] | 100 to 1000 nM |
| Cn1cc(-c2cccc(-c3ncc(-c4cnn(C5CCN(C(=O)C6CCOCC6)CC5)c4)cn3)c2)cn1 [Example 107, [4-(4-{2-[3-(1-Methyl-1H-pyrazol-4-yl)-phenyl]-pyrimidin-5-yl}-pyrazol-1-yl)-piperidin-1-yl]-(tetrahydro-pyran-4-yl)-methanone] | 100 to 1000 nM |
| Cn1cc(-c2cccc(-c3ncc(-c4cnn(C5CCN(C(=O)C6CCCCO6)CC5)c4)cn3)c2)cn1 (centres unmarked) [Example 108, [4-(4-{2-[3-(1-Methyl-1H-pyrazol-4-yl)-phenyl]-pyrimidin-5-yl}-pyrazol-1-yl)-piperidin-1-yl]-(tetrahydro-pyran-2-yl)-methanone] | 100 to 1000 nM |
| COCCC(=O)N1CCC(n2cc(-c3cnc(-c4cccc(-c5cnn(C)c5)c4)nc3)cn2)CC1 [Example 109, 3-Methoxy-1-[4-(4-{2-[3-(1-methyl-1H-pyrazol-4-yl)-phenyl]-pyrimidin-5-yl}-pyrazol-1-yl)-piperidin-1-yl]-propan-1-one] | 100 to 1000 nM |
| Cn1cc(-c2cccc(-c3ncc(-c4cnn(C5C[C@H]6CC[C@@H](C5)N6)c4)cn3)c2)cn1 (stereo partly drawn) [Example 110, (1R,5S)-3-(4-{2-[3-(1-Methyl-1H-pyrazol-4-yl)-phenyl]-pyrimidin-5-yl}-pyrazol-1-yl)-8-aza-bicyclo[3.2.1]octane] | 100 to 1000 nM |
| CCOCC(=O)N1CCC(n2cc(-c3cnc(-c4cccc(-c5cnn(C)c5)c4)nc3)cn2)CC1 [Example 111, 2-Ethoxy-1-[4-(4-{2-[3-(1-methyl-1H-pyrazol-4-yl)-phenyl]-pyrimidin-5-yl}-pyrazol-1-yl)-piperidin-1-yl]-ethanone] | 100 to 1000 nM |
| CCOC1CC(N2CCC(n3cc(-c4cnc(-c5cccc(-c6cnn(C)c6)c5)nc4)cn3)CC2)C1(C)C (centres unmarked) [Example 112, 5-{1-[1-(3-Ethoxy-2,2-dimethyl-cyclobutyl)-piperidin-4-yl]-1H-pyrazol-4-yl}-2-[3-(1-methyl-1H-pyrazol-4-yl)-phenyl]-pyrimidine] | 100 to 1000 nM |
| CN1CC(C(=O)N2CCC(n3cc(-c4cnc(-c5cccc(-c6cnn(C)c6)c5)nc4)cn3)CC2)CC1=O (centres unmarked) [Example 113, 1-Methyl-4-[4-(4-{2-[3-(1-methyl-1H-pyrazol-4-yl)-phenyl]-pyrimidin-5-yl}-pyrazol-1-yl)-piperidine-1-carbonyl]-pyrrolidin-2-one] | 100 to 1000 nM |
